Laboratory results from ChEMBL document CHEMBL2163299, “Cytotoxic effects of combination of oxidosqualene cyclase inhibitors with atorvastatin in human cancer cells” (J Med Chem, 2012).
Activity calls are given as the source filed them. The rule behind the calls is not given here.

How the values were obtained:
[1] = Chemical stability of compound at pH 4.0 after 24 hrs; assay type: physicochemical; conditions: buffer, pH 4, 24 h
[2] = Chemical stability of compound at pH 7.4 after 24 hrs; assay type: physicochemical; conditions: buffer, pH 7.4, 24 h
Lanosterol synthase = target: T1, Lanosterol synthase (Homo sapiens, UniProt P48449); assay: Inhibition of human liver microsome 2,3-OSC after 1 hr by Silica gel plate phosphor imaging
T1 sequence (P48449 whole entry): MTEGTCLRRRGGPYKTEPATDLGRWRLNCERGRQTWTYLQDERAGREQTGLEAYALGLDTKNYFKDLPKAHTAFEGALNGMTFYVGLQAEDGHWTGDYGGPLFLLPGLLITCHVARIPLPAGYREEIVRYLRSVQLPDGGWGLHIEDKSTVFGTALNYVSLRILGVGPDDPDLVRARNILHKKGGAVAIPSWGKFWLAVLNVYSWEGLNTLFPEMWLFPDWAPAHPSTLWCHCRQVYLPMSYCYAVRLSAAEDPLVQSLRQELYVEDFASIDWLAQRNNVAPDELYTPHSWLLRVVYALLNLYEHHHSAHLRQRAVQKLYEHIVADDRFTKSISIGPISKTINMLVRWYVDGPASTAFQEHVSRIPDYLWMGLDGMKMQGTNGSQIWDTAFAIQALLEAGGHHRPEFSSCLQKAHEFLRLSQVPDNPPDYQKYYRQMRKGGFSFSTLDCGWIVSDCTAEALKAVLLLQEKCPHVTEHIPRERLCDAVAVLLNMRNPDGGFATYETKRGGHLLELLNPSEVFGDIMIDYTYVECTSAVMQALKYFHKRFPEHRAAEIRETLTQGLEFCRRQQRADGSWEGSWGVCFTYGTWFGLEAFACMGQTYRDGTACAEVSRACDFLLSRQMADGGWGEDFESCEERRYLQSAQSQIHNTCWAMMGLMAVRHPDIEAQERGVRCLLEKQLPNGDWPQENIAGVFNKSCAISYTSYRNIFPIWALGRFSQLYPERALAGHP

A549 = assay: Cytotoxicity against human A549 cells after 72 hrs by MTT assay; assay type: functional, cell-based; conditions: A549, 72 h
KB = assay: Cytotoxicity against human KB cells after 72 hrs by MTT assay; assay type: functional, cell-based
LNCaP = assay: Cytotoxicity against human LNCAP cells after 72 hrs by MTT assay; assay type: functional, cell-based
[3] = Cytotoxicity against human LNZ308 cells after 72 hrs by MTT assay; assay type: functional, cell-based; conditions: LNZ308, 72 h
[4] = Cytotoxicity against human Me300 cells after 72 hrs by MTT assay; assay type: functional, cell-based; conditions: Me300, 72 h
OVCAR = assay: Cytotoxicity against human OVCAR cells after 72 hrs by MTT assay; assay type: functional, cell-based
LN-18 [5] = assay: Inhibition of DNA synthesis in human LN18 cells assessed as inhibition of tritiated thymidine incorporation at 1 to 3 uM after 24 hrs by beta counting; assay type: functional, cell-based
LN-229 [6] = assay: Inhibition of DNA synthesis in human LN229 cells assessed as inhibition of tritiated thymidine incorporation at 1 to 3 uM after 24 hrs by beta counting; assay type: functional, cell-based
[7] = (§1) Cytotoxicity against human LN18 cells assessed as reduction in cell survival after 72 hrs by MTT assay; assay type: functional, cell-based; conditions: LN-18, 72 h
LN-18 [8] = assay: as §1; assay type: functional, cell-based
[9] = (§2) Cytotoxicity against human LN229 cells assessed as reduction in cell survival after 72 hrs by MTT assay; assay type: functional, cell-based; conditions: LN-229, 72 h
LN-229 [10] = assay: as §2; assay type: functional, cell-based
LN-229 [11] = assay: Cytotoxicity against human LN229 cells at 4 to 10 uM after 72 hrs by MTT assay; assay type: functional, cell-based
LN-18 [12] = assay: Cytotoxicity against human LN18 cells at 2 to 10 uM after 72 hrs by MTT assay in presence of atorvastatin; assay type: functional, cell-based
[13] = Cytotoxicity against human HCEC cells at 2 to 10 uM after 72 hrs in by MTT assay in presence of atorvastatin; assay type: cell-based
[14] = Cytotoxicity against human LN229 cells assessed as decrease in cell survival at 2 uM after 72 hrs by MTT assay in presence of 2.5 uM atorvastatin; assay type: functional, LN-229
LN-229 [15] = assay: Induction of [14C]acetate incorporation in human LN229 cells at 2 uM after 24 hrs by Beta-counting in presence of 2.5 to 10 uM atorvastatin; assay type: functional, cell-based
LN-18 [16] = assay: Induction of [14C]acetate incorporation in human LN18 cells at 2 uM after 24 hrs by Beta-counting in presence of 2.5 to 10 uM atorvastatin; assay type: functional, cell-based
LN-229 [17] = assay: Induction of [14C]acetate incorporation in human LN229 cells at 2 uM after 24 hrs by Beta-counting; assay type: functional, cell-based
LN-18 [18] = assay: Induction of [14C]acetate incorporation in human LN18 cells at 2 uM after 24 hrs by Beta-counting; assay type: functional, cell-based
LN-229 [19] = assay: Cytotoxicity against human LN229 cells at 4 to 10 uM after 72 hrs by MTT assay in presence of atorvastatin; assay type: functional, cell-based
[20] = pampa, pH 6.5
Description: Permeability of compound at pH 6.5 assessed as compound binding to lipid membrane by PAMPA

Caco-2 = assay: cells; conditions: Homo sapiens, Caco-2, 72 h
Description: Cytotoxicity against human Caco2 cells after 72 hrs by MTT assay

HeLa = assay: cells; conditions: Homo sapiens, 72 h
Description: Cytotoxicity against human HeLa cells after 72 hrs by MTT assay

MCF7 = assay: cells; conditions: Homo sapiens, MCF7, 72 h
Description: Cytotoxicity against human MCF7 cells after 72 hrs by MTT assay

cells = conditions: Homo sapiens, HCEC, 72 h
Description: Cytotoxicity against human HCEC cells assessed as reduction in cell survival after 72 hrs by MTT assay

physchem = conditions: 1-octanol/TAPSO buffer, pH 7.4
Description: 1-Octanol-TAPSO buffer distribution coefficient, log D of the compound at pH 7.4 by shake-flask method

in vitro = conditions: pampa, pH 6.5
Description: Apparent permeability of compound at pH 6.5 by PAMPA

LN-18 [21] = assay: Inhibition of lipid synthesis in human LN18 cells assessed as [14C]acetate incorporation after 24 hrs by Beta-counting; assay type: functional, cell-based
LN-229 [22] = assay: Inhibition of lipid synthesis in human LN229 cells assessed as [14C]acetate incorporation after 24 hrs by Beta-counting; assay type: functional, cell-based
LN-18 [23] = assay: Cytotoxicity against human LN18 cells after 72 hrs by MTT assay in presence of atorvastatin; assay type: functional, cell-based
LN-229 [24] = assay: Cytotoxicity against human LN229 cells at 4 uM after 72 hrs by MTT assay in presence of atorvastatin; assay type: functional, cell-based
LN-18 [25] = assay: Cytotoxicity against human LN18 cells at 2 to 4 uM after 72 hrs by MTT assay in presence of atorvastatin; assay type: functional, cell-based
[26] = Cytotoxicity against human HCEC cells assessed as cell death at 4 to 10 uM after 72 hrs by MTT assay in presence of atorvastatin; assay type: cell-based
LN-229 [27] = assay: Cytotoxicity against human LN229 cells at 2 uM after 72 hrs by MTT assay in presence of atorvastatin; assay type: functional, cell-based

Compound | Stability [1] | Stability [2] | IC50 (A549) [µM] | IC50 (KB) [µM] | IC50 (LNCaP) [µM] | IC50 [3] [µM] | IC50 [4] [µM] | IC50 (OVCAR) [µM] | inhibition (LN-18 [5]) | inhibition (LN-229 [6]) | IC50 [7] [µM] | Activity (LN-18 [8]) | IC50 [9] [µM] | permeability [20] [%] | IC50 (Caco-2) [µM] | IC50 (HeLa) [µM] | IC50 (MCF7) [µM] | IC50 (cells) [µM] | logD (physchem) | Papp (in vitro) [×10⁻⁶ cm/s] | further results
CCN(CCO)CCCCOc1ccc2c(-c3ccc(Br)cc3)nsc2c1.Cl | Stable | Stable | 5.14 | 4.66 | > 30 | 4.7 | 6.2 | 16.7 | Active | Active | 2 | Dose-dependent effect | 2.9 | 37 | 1.04 | 6.37 | 5.58 | 2.2 | 3.39 | 0.22 | IC50 (Lanosterol synthase): 0.0178 µM; Activity (LN-229 [10]): Dose-dependent effect; Activity (LN-229 [11]): Active; Activity (LN-18 [12]): Active; Activity [13]: Non-toxic; Activity [14]: 80%; Activity (LN-229 [15]): Active; Activity (LN-18 [16]): Active; Activity (LN-229 [17]): Active; Activity (LN-18 [18]): Active; Activity (LN-229 [19]): Active
CC(C)c1c(C(=O)Nc2ccccc2)c(-c2ccccc2)c(-c2ccc(F)cc2)n1CC[C@@H](O)C[C@@H](O)CC(=O)O [ATORVASTATIN CALCIUM] |  |  | > 30 | 1.97 | > 30 | 7.44 | 1.2 | > 30 | Active | Active | 6.9 |  | 8.1 |  |  | 4.22 | > 30 |  |  |  | inhibition (LN-18 [21]): Dose-dependent effect; inhibition (LN-229 [22]): Dose-dependent effect
C=CCN(C)Cc1ccc(-c2ccc(C(=O)c3ccc(Br)cc3)cc2)cc1.Cl | Stable | Stable | 6.19 | 2.03 | 5.07 | 14.4 | 13.9 | > 30 | Active | Active | 2.3 | Dose-dependent effect | 17.9 | 58 | 3.81 | 2.69 | 25.7 | > 30 | 3.13 | 0.64 | IC50 (Lanosterol synthase): 0.008 µM; Activity (LN-229 [10]): Dose-dependent effect; Activity (LN-18 [23]): Active
C=CCN(C)CCCCCCOc1ccc2c(-c3ccc(Br)cc3)nsc2c1.O=C(O)/C=C/C(=O)O | Stable | Stable | 6.06 | 8.52 | 19.5 | 4.4 | 13.4 | > 30 | Active | Active | 7.6 | Dose-dependent effect | 5.2 | 40 | 1.97 | 8.85 | 8.3 | 4.8 | 3.43 | 0.57 | Activity (LN-18 [12]): Active; Activity (LN-229 [24]): Active
C=CCN(C)CCCCCCOc1ccc(C(=O)c2ccc(Br)cc2)c(F)c1.O=C(O)/C=C/C(=O)O | Stable | Stable | 11.3 | 2.88 | > 30 | 5.26 | > 30 | > 30 | Active | Active | 6.1 | Dose-dependent effect | 8.8 | 20 | 2.99 | 2.89 | 6.77 | 3.8 | 3.92 | 0.12 | Activity (LN-229 [10]): Dose-dependent effect; Activity (LN-18 [25]): Active; Activity [26]: Toxic; Activity (LN-229 [27]): Active; Activity (LN-229 [15]): inactive; Activity (LN-18 [16]): inactive; Activity (LN-229 [17]): Active; Activity (LN-18 [18]): Active
